IC50 data for 17 compounds are collected here from patent publication US8871753B2, “Macrocyclic compounds and their use as kinase inhibitors” (Incyte Corporation, priority 2008, dated 2014).

Molecules are shown by their SMILES. Counter-ions that a name gives are not always drawn. Like-named read-outs stand apart in the source and are kept apart here.

Common to all, as to assay type: biochemical
In experiment [1] the target is T1, human JAK1 (a.a. 837-1142) (Homo sapiens, UniProt P23458).
T1 construct: human JAK1 (a.a. 837-1142); His tag (N); made in house; host or cells: insect cells (baculovirus)
T1 sequence (P23458 849-1154): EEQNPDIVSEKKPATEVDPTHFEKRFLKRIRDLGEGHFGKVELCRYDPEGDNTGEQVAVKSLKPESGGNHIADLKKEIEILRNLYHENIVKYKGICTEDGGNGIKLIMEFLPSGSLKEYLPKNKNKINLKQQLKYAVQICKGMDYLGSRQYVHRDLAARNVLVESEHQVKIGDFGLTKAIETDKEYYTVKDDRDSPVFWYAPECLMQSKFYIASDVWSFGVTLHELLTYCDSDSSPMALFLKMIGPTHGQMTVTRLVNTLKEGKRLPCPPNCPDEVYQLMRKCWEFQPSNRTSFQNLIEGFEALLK
Briefly: In vitro JAK kinase assay (HTRF, phosphorylation of a biotinylated peptide), JAK1. As to conditions: read-out: JAK1 IC50. In a few lines: (§1)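 Kinase activity was measured as phosphorylation of a biotinylated peptide, with ATP at 90 μM for JAK1, 30 μM for JAK2 and 3 μM for JAK3. Reactions ran 1 hr at room temperature, were stopped with EDTA plus SA-APC and Eu-Py20, and were read by HTRF after 40 minutes of antibody binding.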

Experiment [2] has as its target T2, human JAK3 (a.a. 781-1124) (Homo sapiens, UniProt P52333).
T2 construct: JAK3 (a.a. 781-1124); His tag (N); made in house; host or cells: insect cells (baculovirus)
Briefly: In vitro JAK kinase assay (HTRF, phosphorylation of a biotinylated peptide), JAK3. A digest of the protocol: as §1

Experiment [3] deals with T3, human JAK2 (a.a. 828-1132) (Homo sapiens, UniProt O60674).
T3 construct: JAK2 (a.a. 828-1132); His tag (N); made in house; host or cells: insect cells (baculovirus)
T3 sequence (O60674 828-1132): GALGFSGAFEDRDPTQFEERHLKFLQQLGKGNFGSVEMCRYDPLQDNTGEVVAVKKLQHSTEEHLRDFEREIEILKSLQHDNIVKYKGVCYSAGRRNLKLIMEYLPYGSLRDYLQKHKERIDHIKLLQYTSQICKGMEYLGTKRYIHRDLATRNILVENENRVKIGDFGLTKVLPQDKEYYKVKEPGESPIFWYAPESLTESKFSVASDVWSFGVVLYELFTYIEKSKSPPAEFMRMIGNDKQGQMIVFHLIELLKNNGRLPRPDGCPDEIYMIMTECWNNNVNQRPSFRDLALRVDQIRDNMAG
Briefly: In vitro JAK kinase assay (HTRF, phosphorylation of a biotinylated peptide), JAK2. A digest of the protocol:
as §1

In a further experiment the target is TYK2 (Homo sapiens, UniProt P29597). Briefly: TYK2 kinase inhibition (Table A1).
TYK2, sequence (P29597 whole entry): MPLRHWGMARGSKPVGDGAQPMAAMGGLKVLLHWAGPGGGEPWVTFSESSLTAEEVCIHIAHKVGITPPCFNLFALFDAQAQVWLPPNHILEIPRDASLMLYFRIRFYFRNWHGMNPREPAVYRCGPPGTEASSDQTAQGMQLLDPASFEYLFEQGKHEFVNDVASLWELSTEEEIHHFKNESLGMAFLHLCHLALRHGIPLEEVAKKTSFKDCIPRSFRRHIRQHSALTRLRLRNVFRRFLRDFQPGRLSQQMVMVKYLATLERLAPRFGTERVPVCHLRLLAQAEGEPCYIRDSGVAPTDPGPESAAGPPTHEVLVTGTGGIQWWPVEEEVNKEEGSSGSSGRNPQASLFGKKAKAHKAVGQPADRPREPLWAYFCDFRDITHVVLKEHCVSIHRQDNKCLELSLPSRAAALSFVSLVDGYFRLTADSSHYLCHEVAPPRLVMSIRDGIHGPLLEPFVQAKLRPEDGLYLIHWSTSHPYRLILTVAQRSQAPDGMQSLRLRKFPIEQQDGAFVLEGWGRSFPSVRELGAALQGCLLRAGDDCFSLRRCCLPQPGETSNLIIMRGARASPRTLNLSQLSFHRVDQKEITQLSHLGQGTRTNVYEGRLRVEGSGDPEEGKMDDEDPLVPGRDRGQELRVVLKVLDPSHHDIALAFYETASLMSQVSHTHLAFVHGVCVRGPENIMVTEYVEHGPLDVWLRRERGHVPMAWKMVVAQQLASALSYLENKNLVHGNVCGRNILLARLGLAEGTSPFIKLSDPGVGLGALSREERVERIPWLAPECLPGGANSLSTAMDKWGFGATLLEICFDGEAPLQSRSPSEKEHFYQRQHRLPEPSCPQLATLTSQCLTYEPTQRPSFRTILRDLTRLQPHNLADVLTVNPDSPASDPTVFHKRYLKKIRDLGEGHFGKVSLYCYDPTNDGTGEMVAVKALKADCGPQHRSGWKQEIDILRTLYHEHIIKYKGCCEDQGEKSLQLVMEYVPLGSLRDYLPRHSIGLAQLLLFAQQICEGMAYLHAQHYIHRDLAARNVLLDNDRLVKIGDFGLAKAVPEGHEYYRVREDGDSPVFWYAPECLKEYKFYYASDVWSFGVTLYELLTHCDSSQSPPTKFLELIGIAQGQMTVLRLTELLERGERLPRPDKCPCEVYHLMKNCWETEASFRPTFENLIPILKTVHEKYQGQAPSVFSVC

T2 sequence (P52333 781-1124): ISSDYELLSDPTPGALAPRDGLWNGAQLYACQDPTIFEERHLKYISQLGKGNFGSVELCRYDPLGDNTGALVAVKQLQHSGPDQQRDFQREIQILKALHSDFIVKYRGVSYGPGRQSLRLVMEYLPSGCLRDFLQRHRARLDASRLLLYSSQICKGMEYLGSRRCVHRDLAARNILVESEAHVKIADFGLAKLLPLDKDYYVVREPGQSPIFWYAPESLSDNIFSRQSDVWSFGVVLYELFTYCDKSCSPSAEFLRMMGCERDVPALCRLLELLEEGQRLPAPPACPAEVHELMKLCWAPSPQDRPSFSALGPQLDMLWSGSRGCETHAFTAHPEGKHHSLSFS

Consider `O=C(c1cnccn1)N1CCC(CCOc2ccc3cc2CCc2cncc(c2)Nc2ncc(Cl)c(n2)N3)CC1` [Example D177, 6-Chloro-12-{2-[1-(pyrazin-2-ylcarbonyl)piperidin-4-yl]ethoxy}-2,4,8,18,22-pentaazatetracyclo[14.3.1.1(3,7).1(9,13)]docosa-1(20),3(22),4,6,9(21),10,12,16,18-nonaene tris(trifluoroacetate)], for which the IC50 in experiment [1] (Table D1) is 150 nM; in experiment [2] (Table D1) it was over 400 nM; in experiment [3] (Table D1) it was 265 nM; on TYK2 (Table D1), over 400 nM.
In the case of `O=C(c1cccnc1Cl)N1CCC(CCOc2ccc3cc2CCc2cncc(c2)Nc2ncc(Cl)c(n2)N3)CC1` [Example D179, 6-Chloro-12-(2-{1-[(2-chloropyridin-3-yl)carbonyl]piperidin-4-yl}ethoxy)-2,4,8,18,22-pentaazatetracyclo[14.3.1.1(3,7).1(9,13)]docosa-1(20),3(22),4,6,9(21),10,12,16,18-nonaene tris(trifluoroacetate)], the IC50 in experiment [1] (Table D1) was 226 nM; in experiment [2] (Table D1), over 400 nM; in experiment [3] (Table D1), over 400 nM; on TYK2 (Table D1) it was over 400 nM.
Regarding `O=C(Nc1ccc2cc1CCc1cccc(c1)Nc1ncc(Cl)c(n1)N2)N1CCCC1` [Example B81, N-[6-Chloro-2,4,8,22-tetraazatetracyclo[14.3.1.1(3,7).1(9,13)]docosa-1(20), 3(22),4,6,9(21),10,12,16,18-nonaen-12-yl]pyrrolidine-1-carboxamide trifluoroacetate], the IC50 was found to be 109 nM in experiment [1] (Table B1), 475 nM in experiment [2] (Table B1), 123 nM in experiment [3] (Table B1) and 221 nM at TYK2 (Table B1).
As for `O=C(c1ccc(F)cc1F)N1CCC(CCNc2ccc3cc2CCc2cncc(c2)Nc2ncc(Cl)c(n2)N3)CC1` [Example D220, 6-Chloro-N-{2-[1-(2,4-difluorobenzoyl)piperidin-4-yl]ethyl}-2,4,8,18,22-pentaazatetracyclo[14.3.1.1(3,7).1(9,13)]docosa-1(20),3(22),4,6,9(21),10,12,16,18-nonaen-12-amine tris(trifluoroacetate)], the IC50 in experiment [1] (Table D1) is 14 nM; in experiment [2] (Table D1), over 400 nM; in experiment [3] (Table D1) it was 40 nM; against TYK2 (Table D1), 38 nM.
As for `O=C(Cn1c(=O)oc2c3cc(cc21)Nc1nc(ncc1Cl)Nc1cccc(c1)CC3)N1CCOCC1` [Example D187, 4-Chloro-20-(2-morpholin-4-yl-2-oxoethyl)-18-oxa-2,6,8,20,25-pentaazapentacyclo[14.6.1.1(3,7).1(9,13).0(17,21)]pentacosa-1(23),3(25),4,6,9(24),10,12,16,21-nonaen-19-one trifluoroacetate], the IC50 is 200 nM in experiment [1] (Table D1), 130 nM in experiment [2] (Table D1), 185 nM in experiment [3] (Table D1) and over 1000 nM against TYK2 (Table D1).
In the case of `O=C(Cc1ccccc1)N1CCC(Nc2ccc3cc2CCc2cncc(c2)Nc2ncc(Cl)c(n2)N3)CC1` [Example D159, 6-Chloro-N-[1-(phenylacetyl)piperidin-4-yl]-2,4,8,18,22-pentaazatetracyclo[14.3.1.1(3,7).1(9,13)]docosa-1(20),3(22),4,6,9(21),10,12,16,18-nonaen-12-amine tris(trifluoroacetate)], the IC50 in experiment [1] (Table D1) is 313 nM; in experiment [2] (Table D1), over 400 nM; in experiment [3] (Table D1) it was over 400 nM; against TYK2 (Table D1), over 400 nM.
`O=C(CC1CN(c2nncs2)C1)Nc1ccc2cc1CCc1cncc(c1)Nc1ncc(Cl)c(n1)N2` [Example D151, N-[6-Chloro-2,4,8,18,22-pentaazatetracyclo[14.3.1.1(3,7).1(9,13)]docosa-1(20),3(22),4,6,9(21),10,12,16,18-nonaen-12-yl]-2-[1-(1,3,4-thiadiazol-2-yl)azetidin-3-yl]acetamide tris(trifluoroacetate)]: the IC50 in experiment [1] (Table D1) was 76 nM; in experiment [2] (Table D1), over 200 nM; in experiment [3] (Table D1), over 200 nM; against TYK2 (Table D1) it was over 200 nM.
`Cc1nc(CC(=O)Nc2ccc3cc2CCc2cccc(c2)Nc2ncc(Cl)c(n2)N3)c(C)s1` [Example C46, N-[6-Chloro-2,4,8,22-tetraazatetracyclo[14.3.1.1(3,7).1(9,13)]docosa-1(20),3(22),4,6,9(21),10,12,16,18-nonaen-12-yl]-2-(2,5-dimethyl-1,3-thiazol-4-yl)acetamide trifluoroacetate]: the IC50 turned out to be 79 nM in experiment [1], 1490 nM in experiment [2], 170 nM in experiment [3] and 165 nM at TYK2.
As to `Clc1cnc2nc1Nc1cccc(c1)OCCc1cc(CN3CCOCC3)cc(c1)N2` [Example D189, 6-Chloro-19-(morpholin-4-ylmethyl)-14-oxa-2,4,8,23-tetraazatetracyclo[15.3.1.1(3,7).1(9,13)]tricosa-1(21),3(23),4,6,9(22),10,12,17,19-nonaene bis(trifluoroacetate)], the IC50 in experiment [1] (Table D1) was 7.6 nM; in experiment [2] (Table D1), 7.3 nM; in experiment [3] (Table D1), 0.5 nM; on TYK2 (Table D1), 5.2 nM.
The like results for `Cc1cc(C(=O)N2CC(CC(=O)Nc3ccc4cc3CCc3cncc(c3)Nc3ncc(Cl)c(n3)N4)C2)no1` [Example D143, N-[6-Chloro-2,4,8,18,22-pentaazatetracyclo[14.3.1.1(3,7).1(9,13)]docosa-1(20),3(22),4,6,9(21),10,12,16,18-nonaen-12-yl]-2-{1-[(5-methylisoxazol-3-yl)carbonyl]azetidin-3-yl}acetamide bis(trifluoroacetate)] were, in that order, 26 nM, over 1000 nM, 132 nM and 304 nM.
With `O=C(Cn1c(=O)oc2c3cc(cc21)Nc1nc(ncc1Cl)Nc1cccc(c1)CC3)NCc1ccccc1` [Example D186, N-Benzyl-2-[4-chloro-19-oxo-18-oxa-2,6,8,20,25-pentaazapentacyclo[14.6.1.1(3,7).1(9,13).0(17,21)]pentacosa-1(23),3(25),4,6,9(24),10,12,16,21-nonaen-20-yl]acetamide trifluoroacetate], the IC50 in experiment [1] (Table D1) is 53 nM; in experiment [2] (Table D1), 162 nM; in experiment [3] (Table D1) it was 40 nM; against TYK2 (Table D1), 792 nM.
On to `O=C(COc1ccc2cc1CCc1cncc(c1)Nc1ncc(Cl)c(n1)N2)N1CCN(c2cnccn2)CC1` [Example D232, 6-Chloro-12-[2-oxo-2-(4-pyrazin-2-ylpiperazin-1-yl)ethoxy]-2,4,8,18,22-pentaazatetracyclo[14.3.1.1(3,7).1(9,13)]docosa-1(20),3(22),4,6,9(21),10,12,16,18-nonaene tris(trifluoroacetate)], for which the IC50 in experiment [1] (Table D1) is 32 nM; in experiment [2] (Table D1) it was over 400 nM; in experiment [3] (Table D1) it was 160 nM; on TYK2 (Table D1) it was over 400 nM.
As to `O=C(c1ccccc1)N1Cc2cccc(c2)Nc2ncc(Cl)c(n2)Nc2cccc1c2` [Example C22, 14-Benzoyl-6-chloro-2,4,8,14,22-pentaazatetracyclo[14.3.1.1(3,7).1(9,13)]docosa-1(20),3(22),4,6,9(21),10,12,16,18-nonaene], the IC50 is 24 nM in experiment [1], over 400 nM in experiment [2], 32 nM in experiment [3] and 88 nM against TYK2.
For `N#Cc1ccccc1S(=O)(=O)N1CCC(COc2ccc3cc2CCc2cncc(c2)Nc2ncc(Cl)c(n2)N3)C1` (centres unmarked) [Example C57, 2-{[3-({[6-Chloro-2,4,8,18,22-pentaazatetracyclo[14.3.1.1(3,7).1(9,13)]docosa-1(20),3(22),4,6,9(21),10,12,16,18-nonaen-12-yl]oxy}methyl)pyrrolidin-1-yl]sulfonyl}benzonitrile bis(trifluoroacetate)], in that order: over 400 nM, over 400 nM, 288 nM and over 400 nM.
Consider `O=C(CC1CCN(c2ccccn2)C1)Nc1ccc2cc1CCc1cncc(c1)Nc1ncc(Cl)c(n1)N2` (centres unmarked) [Example D156, N-[6-Chloro-2,4,8,18,22-pentaazatetracyclo[14.3.1.1(3,7).1(9,13)]docosa-1(20),3(22),4,6,9(21),10,12,16,18-nonaen-12-yl]-2-(1-pyridin-2-ylpyrrolidin-3-yl)acetamide tris(trifluoroacetate)], for which the IC50 in experiment [1] (Table D1) was 24 nM; in experiment [2] (Table D1) it was over 400 nM; in experiment [3] (Table D1) it was 29 nM; against TYK2 (Table D1), 217 nM.
As for `O=C(Cc1c[nH]cn1)Nc1ccc2cc1CCc1cccc(c1)Nc1ncc(Cl)c(n1)N2` [Example C33, N-[6-Chloro-2,4,8,22-tetraazatetracyclo[14.3.1.1(3,7).1(9,13)]docosa-1(20),3(22),4,6,9(21),10,12,16,18-nonaen-12-yl]-2-(1H-imidazol-4-yl)acetamide bis(trifluoroacetate)], the IC50 in experiment [1] stood at 17 nM; in experiment [2], 733 nM; in experiment [3], 35 nM; against TYK2, 217 nM.
Regarding `Cc1ccc(N2CCN(C(=O)COc3ccc4cc3CCc3cncc(c3)Nc3ncc(Cl)c(n3)N4)CC2)nc1` [Example D246, 6-Chloro-12-{2-[4-(5-methylpyridin-2-yl)piperazin-1-yl]-2-oxoethoxy}-2,4,8,18,22-pentaazatetracyclo[14.3.1.1(3,7).1(9,13)]docosa-1(20),3(22),4,6,9(21),10,12,16,18-nonaene tris(trifluoroacetate)], the IC50 is 30 nM in experiment [1] (Table D1), over 400 nM in experiment [2] (Table D1), 226 nM in experiment [3] (Table D1) and over 400 nM against TYK2 (Table D1).
